Reference: patent US7879835B2 (Korea Research Institute of Chemical Technology, priority 2004, dated 2011)
Where two headings read alike, the source gives them in different places.

Assays:
[1] = tested on: osteoclast (TRAP-positive multinuclear cell) formation; assay: Inhibitory effect on osteoclast formation (TRAP staining); assay type: cell-based, mice; details: Mus musculus, Osteoclast, compared to control, read-out: Osteoclast formation inhibitory effects (%)
In short: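 Non-adherent bone marrow cells from 7–9-week-old female mice, 2×10^5 per well, cultured 8 days with M-CSF (20 ng/ml), RANKL (30 ng/ml) and compound at 0.3, 1.0 or 3 μM. Formation scored by TRAP staining after fixation, 1 h at 37 °C, pH 5.0.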

[2] = In vivo pharmacokinetics using female mice (serum concentration, HPLC); details: for Half-life: read-out: Half-life (converted); for clearance: read-out: CL (clearance) (converted); for Vd: read-out: Vd (volume of distribution)
Protocol: Female mice each weighing […] were divided into groups of 5 mice each. The mice were anesthetized with ether, catheterized in their femoral artery and vein, respectively, and administered with 0.5 mg/kg body weight of compounds 234 and 274, and 5 mg/kg body weight of compounds 388, 404 and 415, respectively, via intravenous injection. Alternatively, 15 mg/kg body weight of compound 274 and 10 mg/kg body weight of compound 234 were orally administered to the mice.
At 0, 5, 10, 15 and 30 minutes and 1, 2, 4, 6, 9 and 12 hours after the intravenous injection, or at 0, 10, 20 and 40 minutes and 1, 2, 4, 6, 9 and 12 hours after the oral administration, 0.3 ml blood samples were taken from the mice through femoral artery. The blood samples were kept on an ice bath for 30 minutes and centrifuged at 3,000 rpm for 10 minutes to obtain a supernatant (serum). The supernatant samples were stored at −20° C.
Standard solution: Compounds 234, 274, 388, 404 and 415 were respectively dissolved in methanol to a concentration of 1 mg/ml to obtain stock solutions. The stock solutions were diluted with methanol to obtain standard solutions having concentrations of 40, 20, 10, 2, 1, 0.5, 0.2, 0.05 and 0.02 μg/ml, respectively.
Standard calibration curve: A stand calibration curve was prepared by employing calibration concentrations of 0.002, 0.005, 0.02, 0.05, 0.1, 0.2, 1, 2 and 4 μg/ml.
10 μl each of the standard solutions prepared above was added to 100 μl of normal serum sample and diluted 10 times. 250 μl of acetonitrile was added to the resulting dilution and the mixture was centrifuged for 10 minutes to obtain a supernatant. 300 μl of the supernatant was dried by evaporation under a nitrogen atmosphere and reconstituted by adding 50 μl of methanol. 20 μl of the resulting solution was analyzed by HPLC to prepare a standard calibration curve. HPLC was performed with Shimadzu ODS2 column (4.6×250 mm, 5 μm by employing a mixture of methanol/water (90/10 (v/v)) as the mobile phase at a flow rate of 1.2 ml/min, and measuring the absorbance at 240 nm.
Extraction: 100 μl of the serum sample obtained in (4-2-1) was put into a 1 ml microtube and 10 μl of methanol was added thereto. 250 μl of acetonitrile was added to the microtube and the mixture was centrifuged for 10 minutes to obtain a supernatant. 300 μl of the supernatant was dried by evaporation under a nitrogen atmosphere and reconstituted by adding 50 μl of methanol. 20 μl of the resulting solution was analyzed by the HPLC method as above.
Average concentrations of the compounds in the serum samples were plotted in a semi-log scale against the time lapsed after the administration, and the pharmacokinetic parameters were determined as a non-compartment open model by employing WinNonlin® program (Pharsight Corporation).

rats = assay: In vivo acute toxicity test (LD50); details: single dose, 2 weeks observation
Protocol: In order to determine the acute toxicities of the compounds prepared in Examples, 6-week old specific pathogen-free (SPF) rats each weighing […] were divided into groups of 10 rat each.
In case of subcutaneous administration, each of the compounds was dissolved in 5% PEG400 solution to a concentration of 20 mg/ml, the resulting solution was serially diluted with 5% PEG400 solution to concentrations of 5, 2.5, 1.25 and 0.625 mg/ml, and the dilutions were subcutaneously injected once to the rats at a dose of 10 ml/kg body weight.
In case of oral administration, each of the compounds was dissolved in soybean oil to a concentration of 180 mg/ml, the resulting solution was serially diluted with soybean oil to concentrations of 80, 20 and 5 mg/ml, and the dilutions were orally administered once to the rats at a dose of 20 ml/kg body weight. […]
During 2 weeks after the administration of the compounds, the death rate, clinical symptoms and weight changes of the rats were observed, and hematological and biochemical tests on blood samples were performed. Then, the rats were sacrificed and the internal organs were visually examined to check any abnormal signs in the organs of chest and abdomen.

Row | Compound | inhibition at 0.3 µM ([1]; 192 h, 0.3 μM, 8 days culture with M-CSF and RANKL) [%] | inhibition at 1 µM ([1]; 192 h, 1.0 μM, 8 days culture with M-CSF and RANKL) [%] | inhibition at 3 µM ([1]; 192 h, 3.0 μM, 8 days culture with M-CSF and RANKL) [%] | AUC (area under the curve of blood concentration versus time) ([2]; I.V.) [ng·h/mL] | AUC (area under the curve of blood concentration versus time) ([2]; Oral) [ng·h/mL] | CL (clearance) ([2]; Oral) [mL/h] | Vd (volume of distribution) ([2]; Oral) [L/kg] | Half-life ([2]; mouse, serum, 15 mg/kg, Oral) [h] | bioavailability ([2]; mouse, serum, 15 mg/kg, oral versus I.V., read-out: Bioavailability) [%] | clearance ([2]; mouse, serum, iv, I.V.) [mL/min] | Half-life ([2]; mouse, serum, iv, I.V.) [h] | Vd ([2]; mouse, serum, iv, I.V.) [L/kg] | LD50 (rats; PO) | LD50 (rats; SC) [mg/kg body weight] | inhibition at 0.1 µM ([1]; 0.1 μM (Table 4b)) [%] | inhibition at 0.3 µM ([1]; 0.3 μM (Table 4b)) [%] | inhibition at 1 µM ([1]; 1 μM (Table 4b)) [%] | inhibition at 3 µM ([1]; 3 μM (Table 4b)) [%]
1 | CO/C=C(/C(=O)OC)c1ccc(Cl)cc1COc1ccc(OCCOC)cc1 [Compound No. 274, (E)-methyl-2-(2-((4-(2-methoxyethoxy)phenoxy)methyl)-4-chlorophenyl)-3-methoxyacrylate] | 100 | 100 | 100 | 47200 ± 25800 | 80600 ± 45400 | 7.5 ± 3.4 | 0.0434 ± 0.0468 | 4.2 ± 3.7 | 8.5 | 0.238 | 3.5 ± 2.3 | 0.0503 ± 0.0098 | 460 mg/kg body weight | 11 | – | – | – | –
2 | CO/C=C(/C(=O)OC)c1ccccc1COc1cccc(N2CCCCC2)c1 [Compound No. 388, (E)-methyl-2-[2-((3-(piperidin-1-yl)phenoxy)methyl)phenyl]-3-methoxyacrylate] | – | – | – | 112600 ± 13000 | – | – | – | – | – | 0.0483 | 7.3 ± 1.2 | 0.0274 ± 0.002 | 110-130 mg/kg body weight | – | 0 | 99 | 100 | 100
